The values below come from PubChem BioAssay (NCI).

Among the test systems are EKVX NSCLC; SN12C renal; SF-295 CNS; OVCAR-3 ovarian; HCC-2998 colon; SF-268 CNS; HT29 colon; SW-620 colon; RPMI-8226 leukemia; SK-MEL-5 melanoma; MDA-N; DU-145 prostate.
What all share (assay): NCI tumour cell line growth inhibition, 48 h

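The compound was tested at five concentrations on cells cultured in 96-well plates, with a 48-hour exposure period. Definition used: TGI = concentration required for complete inhibition of growth.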 A value given as a limit tells only on which side of the number the result lay.

Turning to `O=C(CCN1CCOCC1)C(=Cc1ccccc1)C(=O)CCN1CCOCC1`, the TGI is 5.59 µM with EKVX NSCLC; 7.45 µM with SN12C renal; 29.1 µM in the assay on SF-295 CNS; 14.4 µM in the assay with OVCAR-3 ovarian; 26.9 µM in the assay with HCC-2998 colon; 15.1 µM in the assay with SF-268 CNS. The TGI in the assay with HT29 colon stood at 8.35 µM; in the assay with SW-620 colon it was 4.29 µM; in the assay on RPMI-8226 leukemia, 4.14 µM; with SK-MEL-5 melanoma, 18.2 µM.

Take `COc1cccc(-c2nc(-c3cnccn3)n(COCCO)n2)c1`: the TGI in the assay on SN12C renal, with SF-295 CNS, in the assay with OVCAR-3 ovarian, with MDA-N, in the assay on HCC-2998 colon and in the assay on DU-145 prostate was more than 100 µM each time. Besides, the TGI with SF-268 CNS, in the assay on HT29 colon, in the assay on SW-620 colon, in the assay with RPMI-8226 leukemia and in the assay with SK-MEL-5 melanoma was more than 100 µM in each case.

As for `CC(C)(C)S(=O)OC12CC3CC(CC(C3)C1)C2` (stereo unspecified), the TGI in the assay on EKVX NSCLC, in the assay on SN12C renal, in the assay on SF-295 CNS, with OVCAR-3 ovarian, with SF-268 CNS and in the assay with HT29 colon was more than 100 µM in each case. Further, the TGI in the assay with SW-620 colon, in the assay on RPMI-8226 leukemia and in the assay with SK-MEL-5 melanoma was more than 100 µM in each case.

For the compound `c1ccc(CC2(c3cc4ccccc4[nH]3)OCCO2)nc1`, the TGI in the assay with EKVX NSCLC, in the assay on SN12C renal, in the assay with SF-295 CNS, in the assay on OVCAR-3 ovarian, with MDA-N and in the assay on DU-145 prostate was more than 100 µM each time. The TGI in the assay on SF-268 CNS, in the assay on HT29 colon, in the assay with SW-620 colon, with RPMI-8226 leukemia and with SK-MEL-5 melanoma was more than 100 µM throughout.

Turning to `CC(C)(C)OC(=O)N(CCCCNCc1ccc2ccccc2c1)CCCNCc1ccc2ccccc2c1`, the TGI in the assay on EKVX NSCLC came out at 3.05 µM; with SN12C renal it was 3.32 µM; in the assay on HCC-2998 colon, 0.549 µM; in the assay on DU-145 prostate, 3.1 µM; with SF-268 CNS it was 3.29 µM; in the assay on HT29 colon it was 2.17 µM. Also, the TGI with SW-620 colon amounted to 3.54 µM.

Turning to `COc1ccc2c(c1)CCC(OS(=O)(=O)CC13CCC(CC1=O)C3(C)C)C2=O` (stereo unspecified), the TGI with EKVX NSCLC is more than 100 µM; with SN12C renal it was 35.2 µM; in the assay on OVCAR-3 ovarian, 66.9 µM; in the assay on HCC-2998 colon it was 50.9 µM; in the assay with SF-268 CNS, 59.8 µM; in the assay with SW-620 colon, 69.7 µM. Also, the TGI with RPMI-8226 leukemia is 57.2 µM; with SK-MEL-5 melanoma, 39.2 µM.

As for `COc1ccc(CCc2nccn2C)cc1OC`, the TGI in the assay with EKVX NSCLC, with SN12C renal, with SF-295 CNS, in the assay with OVCAR-3 ovarian, in the assay with MDA-N and in the assay with HCC-2998 colon was more than 100 µM throughout. Moreover, the TGI with SF-268 CNS, in the assay with HT29 colon, in the assay with SW-620 colon, in the assay with RPMI-8226 leukemia and in the assay on SK-MEL-5 melanoma was more than 100 µM in each case.

In the case of `Cc1c(C)c(S(=O)(=O)N(CCCCCON)OCCCN)c(C)c2c1OC(C)(C)CC2`, the TGI with EKVX NSCLC was 24.7 µM; in the assay with SN12C renal, 32.4 µM; with SF-295 CNS it was 29.3 µM; in the assay on OVCAR-3 ovarian, 28.7 µM; with MDA-N, 27.3 µM; with DU-145 prostate, 17.5 µM. For the same compound, the TGI was found to be 30.5 µM with SF-268 CNS; 22.2 µM with HT29 colon; 33.2 µM in the assay on SW-620 colon; 32 µM with RPMI-8226 leukemia; 29.5 µM in the assay with SK-MEL-5 melanoma.

Take `N#Cc1sc2c(c1O)c(=O)n(-c1ccccc1)c(=S)n2-c1ccccc1`: the TGI in the assay with SN12C renal, in the assay with SF-295 CNS, in the assay with OVCAR-3 ovarian, with MDA-N, in the assay on HCC-2998 colon and in the assay with DU-145 prostate was more than 100 µM throughout. Besides, the TGI in the assay on SF-268 CNS, in the assay on HT29 colon, with SW-620 colon, in the assay with RPMI-8226 leukemia and in the assay on SK-MEL-5 melanoma was more than 100 µM in each case.

Regarding `C=CCN1CN(c2ccccc2)C2(CCN(CCCC3(c4ccc(F)cc4)OCCO3)CC2)C1=O`, the TGI worked out at 40.1 µM in the assay with EKVX NSCLC; 32 µM in the assay on SN12C renal; 33 µM with SF-295 CNS; 27.7 µM in the assay with OVCAR-3 ovarian; 35.6 µM with HCC-2998 colon; 61.1 µM with DU-145 prostate. Moreover, the TGI was determined as 38.5 µM in the assay with SF-268 CNS; 20.4 µM in the assay on HT29 colon; 36.9 µM in the assay with SW-620 colon; 34.2 µM in the assay with RPMI-8226 leukemia; 29.8 µM with SK-MEL-5 melanoma.

Regarding `COc1cc(C2C(Cl)C(=O)N2NC(=O)c2ccc(NC(C)=O)cc2OC)ccc1O` (stereo unspecified), the TGI is 29.2 µM with EKVX NSCLC; 35 µM in the assay with SN12C renal; more than 100 µM in the assay on SF-295 CNS; 53.5 µM in the assay with OVCAR-3 ovarian; 50.7 µM in the assay on MDA-N; 43.5 µM with DU-145 prostate. The TGI in the assay with SF-268 CNS was 61.5 µM; with HT29 colon it was 34.1 µM; with SW-620 colon it was 76.3 µM; in the assay on RPMI-8226 leukemia it was 13.4 µM; in the assay with SK-MEL-5 melanoma it was 29.4 µM.

Take `Cc1cc(N(CCC#N)CCC#N)ccc1C=Nc1ccc(C(=O)NN2C(=O)/C(=C/c3ccc(N(CCC#N)CCC#N)cc3)N=C2c2cc([N+](=O)[O-])ccc2Cl)cc1`: the TGI with EKVX NSCLC, in the assay on SN12C renal, in the assay on OVCAR-3 ovarian, with HCC-2998 colon, in the assay on SF-268 CNS and with HT29 colon was more than 100 µM throughout. Moreover, the TGI in the assay on SW-620 colon, in the assay on RPMI-8226 leukemia and with SK-MEL-5 melanoma was more than 100 µM throughout.

With `N#Cc1c(N2CCOCC2)[nH]c(=O)c(C(c2c(Cl)cccc2Cl)c2c(O)c(C#N)c(N3CCOCC3)[nH]c2=O)c1O`, the TGI in the assay on EKVX NSCLC is 39 µM; in the assay with SN12C renal, 34.5 µM; in the assay on SF-295 CNS it was more than 100 µM; in the assay with OVCAR-3 ovarian it was 30.4 µM; with HCC-2998 colon, 27.5 µM; in the assay with DU-145 prostate, 69.2 µM. Moreover, the TGI in the assay with SF-268 CNS is 51.1 µM; in the assay with HT29 colon, 28.9 µM; in the assay with SW-620 colon, 36.8 µM; with RPMI-8226 leukemia, 60.8 µM; in the assay with SK-MEL-5 melanoma it was 35.4 µM.
